# Results as given in EP1657232A1, “Use of S-enantiomers of alpha-sustituted aryl acetic acids for the prevention of Alzheimer's disease” (CELLZOME AG, priority 2004, dated 2006).
# Biological target: T1, cyclooxygenase-1 (Cox-1) (Ovis aries, UniProt P05979)
# T1 construct: purchased Cayman Chemical Company 760111
# T1 sequence (P05979 25-600): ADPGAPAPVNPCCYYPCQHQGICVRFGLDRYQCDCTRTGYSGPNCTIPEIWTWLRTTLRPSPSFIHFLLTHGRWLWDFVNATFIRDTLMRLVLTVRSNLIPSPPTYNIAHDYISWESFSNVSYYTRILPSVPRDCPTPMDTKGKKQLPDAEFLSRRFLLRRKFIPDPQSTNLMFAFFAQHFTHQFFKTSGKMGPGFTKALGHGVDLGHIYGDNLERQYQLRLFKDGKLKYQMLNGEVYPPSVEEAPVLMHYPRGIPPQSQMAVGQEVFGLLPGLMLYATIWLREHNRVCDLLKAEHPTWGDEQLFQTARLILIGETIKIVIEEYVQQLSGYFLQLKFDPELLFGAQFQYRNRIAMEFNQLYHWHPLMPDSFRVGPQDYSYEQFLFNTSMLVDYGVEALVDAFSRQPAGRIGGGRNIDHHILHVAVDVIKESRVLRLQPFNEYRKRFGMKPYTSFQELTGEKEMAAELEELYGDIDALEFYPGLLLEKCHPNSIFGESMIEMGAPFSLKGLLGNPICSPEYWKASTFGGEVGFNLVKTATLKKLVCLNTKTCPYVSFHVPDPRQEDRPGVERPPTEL
# Test: Colorimetric Cox inhibitor screening assay (Cayman Chemical, Cat. No. 760111)
# Format: biochemical
# Protocol: Inhibition of Cox-1 is determined using the Colorimetric Cox inhibitor screening assay provided by Cayman Chemical Company, Ann Arbor, MI, USA. (Cat. No. 760111) according to manufacturer's instructions.
smiles,measurement,value
"CC(C)[C@H](C(=O)O)c1ccc(-c2cccc(C(F)(F)F)c2)cc1 [title compound of example 1, 2(S)-(3'-trifluoromethyl-biphenyl-4-yl)-3-methyl-butanoic acid]",inhibitory effect against Cox-1 activity,no inhibitory effect
